The text below walks through data of PubChem BioAssay (NCI).

Structures are written as SMILES. Where “and” joins values, the source holds several entries; their conditions need not be identical. Equal values may be shown once.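 A five-concentration, 48-hour dose response in 96-well plates underlies each endpoint, interpolated linearly between surrounding concentrations. Abbreviation: GI50, concentration required for 50% inhibition of growth. The concentration for full growth arrest is given as TGI.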 *1 amine or outer side, *2 acyl side, *3 side chain or, on linkers, in order; H or OH if unused. Where a SMILES comes first, the peptide text is derived from it. Bridges are numbered along the chain shown (N, C = ends). [ ]: non-standard residue; d: D form. The star is where a group is joined. Phe(3-Me) = Cc1cccc(C[C@H](N)C(=O)O)c1; NH(4-Cl-2-F-phenyl) = Fc1cc(Cl)ccc1N*; Pro(4R-Me) = C[C@H]1CN[C@H](C(=O)O)C1; Hyp = O=C(O)[C@@H]1C[C@@H](O)CN1; aThr = C[C@H](O)[C@H](N)C(=O)O; Pip = O=C(O)[C@@H]1CCCCN1; CO = O=C([*:1])[*:2]

The test system of the experiment is MDA-MB-468 breast. In words: NCI anticancer screen, dose series, 48 h.

Take `C[C@@H]1CCN(C(=O)CC#N)C[C@@H]1N(C)c1ncnc2[nH]ccc12`: the GI50 was more than 100000 nM and the TGI is more than 100000 nM.
In the case of `COc1ccc(C(=O)/C=C/c2cc(C(=O)c3cc(OC)c(OC)c(OC)c3)ccc2OC)cc1`, the GI50 was 3030 nM and the TGI is more than 100000 nM.
In the case of `CCC(C)/C=C(C)/C=C/C(=O)c1c(O)c(-c2ccc(O)cc2)c[nH]c1=O` (configuration not stated), the GI50 was 1870 nM and the TGI is 7760 nM.
On the same counts, the results for `CCS(=O)(=O)c1ccc(OC)c(Nc2nccc(N(C)c3ccc4c(C)[nH]nc4c3)n2)c1` are 3480 nM and 9320 nM.
On to `COc1cccc(/C=C/C(=O)c2cc3c(N)c(C(=O)Nc4cccc(Cl)c4C)sc3nc2C)c1`, for which the GI50 is 778 nM and the TGI turned out to be 1820 nM.
In the case of `Cc1cc2c(C(N)=O)cccc2n1-c1nc2c(c(NCc3ccccc3)n1)CCCN2`, the GI50 is 223 nM and the TGI was 477 nM.
As for `Cc1nc(NC(=S)Nc2ccc(F)cc2)sc1C(=O)NNC(=S)Nc1ccc(F)cc1`, the GI50 was 2220 nM and the TGI turned out to be 9530 nM.
`CCc1ccc(CCC(=O)Nc2ncc(Cc3ccccc3)s2)o1`: the GI50 was 1550 nM and the TGI is more than 100000 nM.
As for `CCc1nc2ccc(Cc3ccc(C(=O)NO)cc3)cc2c(=O)n1CCc1ccccc1`, the GI50 was 740 nM and the TGI was 2970 nM.
In the case of `Cc1ccc(NS(=O)(=O)c2cc(C)ccc2C)cc1`, the GI50 is 1420 nM and the TGI was found to be 7280 nM.
On to `Cc1c(CN2CCC(Nc3ncnc4sc(CC(F)(F)F)cc34)CC2)ccc2c1cc(C#N)n2Cc1cn[nH]c1`, for which the GI50 is 842 nM and 781 nM; the TGI is 3820 nM and 6250 nM.
As for `O=C(CNC(=O)c1cccc2ccccc12)Nc1ccccc1Oc1ccccc1`, the GI50 is 325 nM and the TGI was determined as 5900 nM.
For `O=C(Nc1ccncc1)C(=O)c1cn(S(=O)(=O)c2ccccc2F)c2ccccc12`, in that order: 1510 nM and 9810 nM.
On the same counts, the results for `COc1ccc(C(=O)c2cc(OC)c(OC)c(OC)c2)cc1O` are 239 nM and 779 nM.
For `O=C(O)c1ccc(NS(=O)(=O)c2cccc3cccnc23)cc1`, the GI50 was more than 100000 nM and the TGI was more than 100000 nM.
For the compound `CSc1ccc(/C(=N/N=C(N)N)c2ccc(F)cc2)cc1`, the GI50 was 398 nM and the TGI amounted to 2130 nM.
For `Nc1ncc(-c2ccc(C(F)(F)F)cc2)c(NC2CCCCCC2)n1`, in that order: 4150 nM and more than 100000 nM.
For `COc1ccc(Cn2cc3c(c2-c2cc(OC)c(OC)c(OC)c2)CCc2c(CN4CCCC4)noc2-3)cc1`, in that order: 280 nM and 966 nM.
On the same counts, the results for `CC1(C)N=C(N)N=C(N)N1c1cccc(CCCCc2ccc(S(=O)(=O)F)cc2Cl)c1` are 2130 nM and 18800 nM.
As for `O=C1Nc2cc(OC(F)(F)F)ccc2Oc2ccc(-c3ccnc(N4CCNCC4)c3)cc21`, the GI50 is 394 nM and the TGI came out at 1460 nM.
On to `COC[C@H]1OC(=O)c2coc3c2[C@@]1(C)C1=C(C3=O)[C@@H]2CCC(=O)[C@@]2(C)C[C@H]1OC(C)=O`, for which the GI50 is 421 nM and the TGI came to 4620 nM.
As to `CCOc1cc2ncc(C#N)c(Nc3ccc(F)c(Cl)c3)c2cc1NC(=O)/C=C/CN(C)C`, the GI50 is 2.38 nM and the TGI is 35.1 nM.
On the same counts, the results for `Cc1nn2c(/C=C3/C(=O)Nc4ccc(Cl)cc43)c(-c3ccccc3)nc2s1` are 3470 nM and 14700 nM.
As for `O=C(Nc1ccc(Nc2ccncc2)cc1)c1ccc(Nc2ccnc3ccc([N+](=O)[O-])cc23)cc1`, the GI50 was more than 100000 nM and the TGI was more than 100000 nM.
`O=C1CNc2cc(N3CCN(c4cccc(C(F)(F)F)c4)CC3)ccc2N1`: the GI50 is 4920 nM and the TGI was found to be 43600 nM.
For `CN1CCN(Cc2ccc(NC(=O)c3[nH]ncc3Nc3ncnc4c3CCC4)cc2)CC1`, in that order: 2000 nM and 5840 nM.
For `N#CSCC1CC(O)(c2ccccc2)C(c2ccccc2)C(c2ccc(F)cc2)O1` (configuration not stated), in that order: 3510 nM and 13100 nM.
For `COc1cc(-c2cc(-c3nc4ccccc4[nH]3)[nH]n2)cc(OC)c1OC`, in that order: 935 nM and 16600 nM.
Take `Cc1c(Cl)cccc1NC(=O)c1sc2nc3c(cc2c1N)CCCCCC3`: the GI50 is 130 nM and the TGI came to 19900 nM.
In the case of `CN(C)CC#Cc1cccc(C(=O)c2cnn(-c3ccc(F)cc3)c2N)c1`, the GI50 was 13300 nM and the TGI was more than 25000 nM.
For the compound `Cc1cccc(C[C@H](NC(=O)Nc2ccc(Cl)cc2F)C(=O)N[C@@H]2C(=O)N3C[C@H](O)C[C@H]3C(=O)N3CCCC[C@H]3C(=O)N[C@@H](C)C(=O)N3C[C@H](C)C[C@H]3C(=O)O[C@H]2C)c1` ({NH(4-Cl-2-F-phenyl)-CO}-[Phe(3-Me)][aThr][Hyp][Pip]A[Pro(4R-Me)]; ester 2-C), the GI50 is 253 nM and the TGI was determined as 1030 nM.
Consider `Cn1c2ccccc2c2nnc(N/N=C/c3ccccn3)nc21`, for which the GI50 was 293 nM.
In the case of `O=[N+]([O-])c1cc(Br)cc2c1[nH]c1ccc(Br)cc12`, the GI50 was 7520 nM and the TGI was 79700 nM.
On the same counts, the results for `O=C1C(Cl)=C(N2CCOCC2)C(=O)c2ccccc21` are 1440 nM and 2940 nM.
For `O=C(NNc1nc2cc(F)c(F)cc2n2c(CN3CC4CNCC4C3)ccc12)c1ncccn1` (configuration not stated), the GI50 was 2040 nM and the TGI was 9820 nM.
On the same counts, the results for `C#CC[C@H](c1nc2cc(Cl)ccc2c(=O)n1Nc1ccccc1)N(CCCN)C(=O)c1cccc(Cl)c1F` are 42.1 nM and 755 nM.
On the same counts, the results for `Cc1nc(Nc2ccc(F)c(Cl)c2)sc1C(=O)O` are 1200 nM and 3790 nM.
On to `O=C(c1cc(-c2cc3c(cc2C(=O)N2Cc4ccccc4C[C@H]2CN2CCOCC2)OCO3)n2c1CCCC2)N(c1ccccc1)c1ccc(O)cc1`, for which the GI50 is 3070 nM and the TGI was found to be 96200 nM.
On the same counts, the results for `O=c1[nH]nc2c3c(cccc13)NC(CN1Cc3ccccc3C1)=N2` are 7920 nM and more than 100000 nM.
On the same counts, the results for `c1cncc(CNc2ccccc2-c2nnc(Nc3ccc4c(c3)OCCO4)o2)c1` are 218 nM and 821 nM.
Consider `CO/N=C1/NC(=O)/C(=C/c2ccc3ncccc3c2)S1`, for which the GI50 was 4910 nM and the TGI is more than 25000 nM.
Regarding `CCN(CC)CCCC(C)Nc1cnc(C(=O)Nc2cc(F)cc3cccnc23)cn1` (configuration not stated), the GI50 was 2830 nM and 327 nM.
Regarding `Cc1ccc(C(=O)N/N=C/c2cccc(Oc3ccccc3)c2)cn1`, the GI50 was 4430 nM and the TGI is more than 34900 nM.
Consider `COc1ccc(C2=C(c3cn(C)c4ccccc34)C(=O)NC2=O)cc1OC`, for which the GI50 is 5860 nM and the TGI was more than 25000 nM.
For `O=C(N/N=C/c1ccc(O)cc1O)c1ccc(Nc2ccnc(C(F)(F)F)c2)cc1`, in that order: 15200 nM and more than 100000 nM.
On to `COc1ccc(/C=C(\C#N)c2cc(OC)c3c(c2)OCO3)cc1`, for which the GI50 was 17.3 nM and the TGI was 150 nM.
For the compound `COc1ccc(C2c3cc4c(cc3OC(N3CCOCC3)C2C)OCO4)c(OC)c1` (configuration not stated), the GI50 was 7180 nM and the TGI came out at 32000 nM.
